Test results reported in ChEMBL document CHEMBL4373707 (J Med Chem, 2019).

How the values were obtained:
Integrin alpha-V/beta-1 = Integrin alpha-V/beta-1 (Homo sapiens, UniProt P05556+P06756)
Description: Inhibition of integrin alphavbeta1 (unknown origin) expressed in human A549 cells assessed as reduction in cell adhesion to GST-LAP1 (242 to 252 amino acids) incubated for 30 mins by fluorescent probe BCECF-AM based fluorescence assay

Integrin alpha-V/beta-3 = Integrin alpha-V/beta-3 (Homo sapiens, UniProt P05106+P06756)
Description: Inhibition of integrin alphavbeta3 (unknown origin) expressed in human K562 cells assessed as reduction in cell adhesion to GST-LAP1 (242 to 252 amino acids) incubated for 30 mins by fluorescent probe BCECF-AM based fluorescence assay

Integrin alpha-V/beta-6 [1] = biological target: T1, Integrin alpha-V/beta-6 (Homo sapiens, UniProt P06756+P18564)
Description: Inhibition of integrin alphavbeta6 (unknown origin) expressed in human K562 cells assessed as reduction in cell adhesion to GST-LAP1 (242 to 252 amino acids) incubated for 30 mins by fluorescent probe BCECF-AM based fluorescence assay

[2] = buffer
Description: (§1) Aqueous kinetic solubility of the compund by CLND method

Integrin alpha-V/beta-5 = Integrin alpha-V/beta-5 (Homo sapiens, UniProt P06756+P18084)
Description: Inhibition of integrin alphavbeta5 (unknown origin) expressed in human K562 cells assessed as reduction in cell adhesion to human vitronectin incubated for 30 mins by fluorescent probe BCECF-AM based fluorescence assay

physchem [3] = details: buffer, pH 7.4
Description: Lipophilicity, logD of the compound at pH 7.4 by chromatographic method

Integrin alpha-V/beta-8 = Integrin alpha-V/beta-8 (Homo sapiens, UniProt P06756+P26012)
Description: Inhibition of integrin alphavbeta8 (unknown origin) expressed in human K562 cells assessed as reduction in cell adhesion to GST-LAP1 (242 to 252 amino acids) incubated for 30 mins by fluorescent probe BCECF-AM based fluorescence assay

Homo sapiens [4] = species on record: Homo sapiens; assay: Selectivity ratio of IC50 for integrin alphavbeta3 (unknown origin) expressed in human K562 cells to IC50 for integrin alphavbeta6 (unknown origin) expressed in human K562 cells; format: cell-based
Homo sapiens [5] = species on record: Homo sapiens; assay: Selectivity ratio of IC50 for integrin alphavbeta1 (unknown origin) expressed in human A549 cells to IC50 for integrin alphavbeta6 (unknown origin) expressed in human K562 cells; format: cell-based
Integrin alpha-V/beta-6 [6] = biological target: T1, Integrin alpha-V/beta-6; assay: Inhibition of integrin alphavbeta6 (unknown origin) by radioligand binding assay; format: protein-complex assay
Homo sapiens [7] = species on record: Homo sapiens; assay: Selectivity ratio of IC50 for integrin alphavbeta8 (unknown origin) expressed in human K562 cells to IC50 for integrin alphavbeta6 (unknown origin) expressed in human K562 cells; format: cell-based
Homo sapiens [8] = species on record: Homo sapiens; assay: Selectivity ratio of IC50 for integrin alphavbeta5 (unknown origin) expressed in human K562 cells to IC50 for integrin alphavbeta6 (unknown origin) expressed in human K562 cells; format: cell-based
[9] = Unbound blood clearance in dual cannulated Wistar-Han rat at 1 mg/kg, iv administered as infusion for 60 mins and measured up to 7 hrs by LC-MS/MS analysis; format: ADME, organism-based; details: in vivo
[10] = Protein binding in human blood assessed as fraction unbound at 1 ug/ml incubated for 4 hrs by LC-MS/MS-based rapid equilibrium dialysis method; format: ADME, tissue-based; details: at 1 µg/mL
[11] = Blood clearance in dual cannulated Wistar-Han rat at 1 mg/kg, iv administered as infusion for 60 mins and measured up to 7 hrs by LC-MS/MS analysis; format: ADME, organism-based; details: whole blood
[12] = Stability in cryopreserved human hepatocytes at 0.5 uM measured up to 60 mins by LC-MS/MS analysis; format: ADME, cell-based, Hepatocyte; details: 1 h
[13] = Protein binding in human lung homogenates assessed as fraction unbound at 1 ug/ml incubated for 4 hrs by LC-MS/MS-based rapid equilibrium dialysis method; format: ADME, tissue-based; details: at 1 µg/mL
[14] = Volume of distribution in dual cannulated Wistar-Han rat at 1 mg/kg, iv administered as infusion for 60 mins and measured up to 7 hrs by LC-MS/MS analysis; format: ADME, organism-based; details: in vivo
[15] = Protein binding in rat blood assessed as unbound fraction at 1 ug/ml incubated for 4 hrs by LC-MS/MS-based rapid equilibrium dialysis method; format: ADME, tissue-based; details: at 1 µg/mL
[16] = Drug metabolism assessed as unmethylated (3S)-3-[3-(3,5-dimethylpyrazol-1-yl)phenyl]-4-[(3R)-3-[2-(5,6,7,8-tetrahydro-1,8-naphthyridin-2-yl)ethyl]pyrrolidin-1-yl]butanoic acid hydrochloride formation
[17] = biological target: Voltage-gated inwardly rectifying potassium channel KCNH2 (Homo sapiens, UniProt Q12809); assay: Inhibition of human ERG expressed in CHO-K1 cells at -80 mV holding potential by IonWorks barracuda automated electrophysiology method; format: cell-based
[18] = Stability in cryopreserved Wistar-Han rat hepatocytes assessed as compound turnover rate at 0.5 uM measured up to 60 mins by LC-MS/MS analysis; format: ADME, cell-based, Hepatocyte; details: 1 h
physchem [19] = details: buffer
Description: as §1

[20] = Half-life in dual cannulated Wistar-Han rat at 1 mg/kg, iv administered as infusion for 60 mins and measured up to 7 hrs by LC-MS/MS analysis; format: ADME, organism-based; details: in vivo
in vitro = details: not told
Description: Permeability of the compound

[21] = Inhibition of human LAP binding to human integrin alphavbeta8 after 2 hrs
[22] = Unbound blood clearance in dual cannulated Wistar-Han rat at 1 mg/kg, iv administered as infusion for 30 mins and measured up to 24 hrs by LC-MS/MS analysis; format: ADME, organism-based; details: in vivo
[23] = Inhibition of integrin alphavbeta8 (unknown origin) by radioligand binding assay; parameters: species or system Homo sapiens
[24] = Volume of distribution in dual cannulated Wistar-Han rat at 1 mg/kg, iv administered as infusion for 30 mins and measured up to 24 hrs by LC-MS/MS analysis; format: ADME, organism-based; details: in vivo
[25] = Blood clearance in dual cannulated Wistar-Han rat at 1 mg/kg, iv administered as infusion for 30 mins and measured up to 24 hrs by LC-MS/MS analysis; format: ADME, organism-based; details: whole blood

Integrin alpha-V/beta-1, sequence (P05556 21-798 limits assumed): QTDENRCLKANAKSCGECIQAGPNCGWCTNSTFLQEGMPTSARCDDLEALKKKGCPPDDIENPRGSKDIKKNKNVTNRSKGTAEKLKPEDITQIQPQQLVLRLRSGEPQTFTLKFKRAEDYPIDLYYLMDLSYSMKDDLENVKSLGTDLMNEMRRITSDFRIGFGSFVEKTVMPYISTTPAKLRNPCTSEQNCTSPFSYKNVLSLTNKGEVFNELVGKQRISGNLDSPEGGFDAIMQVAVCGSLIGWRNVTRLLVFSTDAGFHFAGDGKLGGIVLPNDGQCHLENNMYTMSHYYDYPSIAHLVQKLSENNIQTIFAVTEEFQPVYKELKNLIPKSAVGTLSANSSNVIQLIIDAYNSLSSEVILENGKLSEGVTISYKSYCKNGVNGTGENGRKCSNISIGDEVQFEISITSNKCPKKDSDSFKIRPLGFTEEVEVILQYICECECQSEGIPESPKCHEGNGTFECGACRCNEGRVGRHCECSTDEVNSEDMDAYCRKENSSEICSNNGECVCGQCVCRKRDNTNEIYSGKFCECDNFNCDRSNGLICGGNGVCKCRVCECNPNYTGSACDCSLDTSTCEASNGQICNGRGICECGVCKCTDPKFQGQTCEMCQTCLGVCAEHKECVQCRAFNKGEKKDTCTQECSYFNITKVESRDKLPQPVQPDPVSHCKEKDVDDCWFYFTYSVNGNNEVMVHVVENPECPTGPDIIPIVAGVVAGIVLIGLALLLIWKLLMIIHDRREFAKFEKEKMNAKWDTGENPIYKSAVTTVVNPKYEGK
Integrin alpha-V/beta-1, sequence (P06756 31-889 limits assumed): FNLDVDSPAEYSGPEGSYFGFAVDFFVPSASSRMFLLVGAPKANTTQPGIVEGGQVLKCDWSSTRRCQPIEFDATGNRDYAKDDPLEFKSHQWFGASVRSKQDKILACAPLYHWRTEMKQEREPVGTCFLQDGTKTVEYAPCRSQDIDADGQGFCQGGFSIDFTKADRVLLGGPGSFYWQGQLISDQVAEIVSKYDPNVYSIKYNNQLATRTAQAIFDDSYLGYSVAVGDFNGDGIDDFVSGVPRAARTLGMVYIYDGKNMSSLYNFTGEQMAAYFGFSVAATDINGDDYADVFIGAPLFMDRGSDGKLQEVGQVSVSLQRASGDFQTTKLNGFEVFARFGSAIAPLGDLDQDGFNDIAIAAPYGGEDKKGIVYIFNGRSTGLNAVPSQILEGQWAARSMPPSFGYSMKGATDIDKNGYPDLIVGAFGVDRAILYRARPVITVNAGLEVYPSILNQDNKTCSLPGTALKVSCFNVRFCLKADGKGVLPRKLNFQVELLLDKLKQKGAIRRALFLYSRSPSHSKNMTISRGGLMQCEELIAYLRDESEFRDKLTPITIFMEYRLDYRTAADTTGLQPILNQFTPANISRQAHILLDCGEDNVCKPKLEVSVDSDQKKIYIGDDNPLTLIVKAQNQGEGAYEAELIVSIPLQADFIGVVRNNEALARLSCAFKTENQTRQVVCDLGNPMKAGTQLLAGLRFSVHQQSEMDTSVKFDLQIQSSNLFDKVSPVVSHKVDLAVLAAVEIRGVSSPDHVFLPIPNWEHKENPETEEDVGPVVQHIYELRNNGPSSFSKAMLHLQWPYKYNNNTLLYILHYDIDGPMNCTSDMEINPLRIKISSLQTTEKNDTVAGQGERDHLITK
Integrin alpha-V/beta-1, sequence (P06756 891-1048 limits assumed): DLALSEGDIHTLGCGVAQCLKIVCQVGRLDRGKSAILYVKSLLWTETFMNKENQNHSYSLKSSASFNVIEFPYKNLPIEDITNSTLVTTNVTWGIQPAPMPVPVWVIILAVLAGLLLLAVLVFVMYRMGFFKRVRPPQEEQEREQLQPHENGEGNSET
Integrin alpha-V/beta-5, sequence (P06756 31-889 limits assumed): as the sequence (P06756 31-889 limits assumed) above
Integrin alpha-V/beta-5, sequence (P06756 891-1048 limits assumed): as the sequence (P06756 891-1048 limits assumed) above
Integrin alpha-V/beta-5, sequence (P18084 24-799 limits assumed): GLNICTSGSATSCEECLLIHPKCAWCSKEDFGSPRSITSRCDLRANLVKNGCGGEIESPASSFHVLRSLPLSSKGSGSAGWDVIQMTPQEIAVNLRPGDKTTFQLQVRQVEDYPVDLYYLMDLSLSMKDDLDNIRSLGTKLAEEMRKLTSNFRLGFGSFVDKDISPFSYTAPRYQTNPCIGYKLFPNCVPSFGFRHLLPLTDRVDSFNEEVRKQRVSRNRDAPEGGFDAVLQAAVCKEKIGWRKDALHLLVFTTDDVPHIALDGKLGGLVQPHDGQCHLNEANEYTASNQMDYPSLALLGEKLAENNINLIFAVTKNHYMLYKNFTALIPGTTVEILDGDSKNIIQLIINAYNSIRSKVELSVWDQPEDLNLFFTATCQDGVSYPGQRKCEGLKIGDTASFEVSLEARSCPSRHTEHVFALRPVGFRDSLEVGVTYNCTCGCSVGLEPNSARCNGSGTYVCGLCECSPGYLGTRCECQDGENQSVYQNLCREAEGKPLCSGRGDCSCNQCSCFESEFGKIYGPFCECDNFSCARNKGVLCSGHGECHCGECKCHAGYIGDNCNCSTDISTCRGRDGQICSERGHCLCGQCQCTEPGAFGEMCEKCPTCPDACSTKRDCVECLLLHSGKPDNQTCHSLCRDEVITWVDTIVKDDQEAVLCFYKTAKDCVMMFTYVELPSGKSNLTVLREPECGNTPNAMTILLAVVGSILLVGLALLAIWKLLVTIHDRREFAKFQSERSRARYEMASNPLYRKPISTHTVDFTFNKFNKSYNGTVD
Integrin alpha-V/beta-8, sequence (P06756 31-889 limits assumed): as the sequence (P06756 31-889 limits assumed) above
Integrin alpha-V/beta-8, sequence (P06756 891-1048 limits assumed): as the sequence (P06756 891-1048 limits assumed) above
Integrin alpha-V/beta-8, sequence (P26012 43-769 limits assumed): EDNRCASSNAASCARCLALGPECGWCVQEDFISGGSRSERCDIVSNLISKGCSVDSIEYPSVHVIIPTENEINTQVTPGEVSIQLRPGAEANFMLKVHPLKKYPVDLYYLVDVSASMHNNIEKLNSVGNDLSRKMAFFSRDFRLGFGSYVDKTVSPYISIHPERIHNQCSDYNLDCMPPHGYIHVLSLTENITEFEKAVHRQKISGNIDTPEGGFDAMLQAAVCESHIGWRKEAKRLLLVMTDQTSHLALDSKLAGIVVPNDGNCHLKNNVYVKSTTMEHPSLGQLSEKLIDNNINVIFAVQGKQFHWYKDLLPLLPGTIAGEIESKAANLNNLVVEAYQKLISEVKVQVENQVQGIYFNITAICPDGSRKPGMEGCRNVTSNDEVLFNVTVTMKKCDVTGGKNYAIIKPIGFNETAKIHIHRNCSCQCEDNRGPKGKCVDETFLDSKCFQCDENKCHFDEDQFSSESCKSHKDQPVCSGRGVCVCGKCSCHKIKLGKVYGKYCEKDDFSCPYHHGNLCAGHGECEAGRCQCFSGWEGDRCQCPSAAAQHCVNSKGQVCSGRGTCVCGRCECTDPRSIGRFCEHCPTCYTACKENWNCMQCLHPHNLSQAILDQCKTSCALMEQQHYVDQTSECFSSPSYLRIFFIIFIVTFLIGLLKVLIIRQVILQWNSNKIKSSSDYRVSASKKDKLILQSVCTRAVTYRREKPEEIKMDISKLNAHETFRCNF
T1 sequence (P06756 31-889 limits assumed): as the sequence (P06756 31-889 limits assumed) above
T1 sequence (P06756 891-1048 limits assumed): as the sequence (P06756 891-1048 limits assumed) above
T1 sequence (P18564 22-788 limits assumed): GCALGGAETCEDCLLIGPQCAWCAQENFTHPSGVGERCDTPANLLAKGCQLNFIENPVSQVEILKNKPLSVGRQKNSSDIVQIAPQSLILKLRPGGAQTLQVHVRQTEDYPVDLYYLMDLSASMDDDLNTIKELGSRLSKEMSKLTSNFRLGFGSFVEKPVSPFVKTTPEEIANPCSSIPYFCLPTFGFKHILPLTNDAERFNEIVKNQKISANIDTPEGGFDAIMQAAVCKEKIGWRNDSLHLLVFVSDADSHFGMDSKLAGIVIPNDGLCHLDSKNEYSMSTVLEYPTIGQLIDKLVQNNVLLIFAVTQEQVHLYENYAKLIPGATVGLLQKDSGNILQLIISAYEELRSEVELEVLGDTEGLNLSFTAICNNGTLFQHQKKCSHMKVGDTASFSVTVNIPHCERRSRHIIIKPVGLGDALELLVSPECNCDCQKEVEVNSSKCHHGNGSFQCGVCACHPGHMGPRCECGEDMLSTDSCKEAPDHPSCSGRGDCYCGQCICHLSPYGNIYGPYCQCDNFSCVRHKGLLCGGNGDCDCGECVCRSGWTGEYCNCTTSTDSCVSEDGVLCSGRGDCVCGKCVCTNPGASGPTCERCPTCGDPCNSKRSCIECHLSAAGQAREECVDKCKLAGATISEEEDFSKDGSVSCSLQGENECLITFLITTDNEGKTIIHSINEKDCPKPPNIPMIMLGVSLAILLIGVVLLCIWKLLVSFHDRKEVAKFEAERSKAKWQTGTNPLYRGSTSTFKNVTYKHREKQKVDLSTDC

IC50 (Integrin alpha-V/beta-1) [nM] | IC50 (Integrin alpha-V/beta-3) [nM] | IC50 (Integrin alpha-V/beta-6 [1]) [nM] | Kinetic_solubility [2] | IC50 (Integrin alpha-V/beta-5) [nM] | chromatographic logD (physchem [3]) | IC50 (Integrin alpha-V/beta-8) [nM] | Structure (SMILES) | other results
3980 | 3980 | 12.6 | Soluble | 79.4 | 1.9 | 200 | C[N+]1(C[C@@H](CC(=O)[O-])c2cccc(O[C@@H]3CCOC3)c2)CC[C@@H](CCc2ccc3c(n2)NCCC3)C1 (mixture of isomers) | 
2000 | > 10000 | 3.16 | Soluble | 1000 | 2.4 | 63.1 | Cc1cc(C)n(-c2cccc([C@H](CC(=O)[O-])C[N@+]3(C)CC[C@@H](CCc4ccc5c(n4)NCCC5)C3)c2)n1 | Ratio IC50 (Homo sapiens [4]): 10 to 1000; Ratio IC50 (Homo sapiens [5]): 10 to 1000; Ki (Integrin alpha-V/beta-6 [6]): 0.174 nM; Ratio IC50 (Homo sapiens [7]): 10 to 1000; Ratio IC50 (Homo sapiens [8]): 10 to 1000
5010 |  | 39.8 | Soluble | > 10000 | 2.8 | 1260 | CC[N@+]1(C[C@@H](CC(=O)[O-])c2cccc(-n3nc(C)cc3C)c2)CC[C@@H](CCc2ccc3c(n2)NCCC3)C1 | 
794 | 5010 | 12.6 | Soluble | 251 | 1.8 | 126 | C[N+]1(C[C@@H](CC(=O)[O-])c2cccc(N3CCOCC3)c2)CC[C@@H](CCc2ccc3c(n2)NCCC3)C1 (mixture of isomers) | 
631 | 6310 | 3.16 |  | 501 | 2.5 | 79.4 | Cc1cc(C)n(-c2cccc([C@H](CC(=O)[O-])C[N@@+]3(C)CC[C@@H](CCc4ccc5c(n4)NCCC5)C3)c2)n1 | CL free [9]: 190 mL/min/kg; fraction unbound at 4 h, 1 ug/ml [10]: 0.503; clearance [11]: 87.6 mL/min/kg; Stability [12]: < 0.45 mL/min/g; Ratio IC50 (Homo sapiens [4]): 10 to 1000; fraction unbound at 4 h, 1 ug/ml [13]: 0.097; Vd [14]: 1.1 L/kg; fraction unbound at 4 h, 1 ug/ml [15]: 0.583; Drug metabolism [16]: Metabolite not detected; IC50 [17]: > 50100 nM; Ratio IC50 (Homo sapiens [5]): 10 to 1000; Ki (Integrin alpha-V/beta-6 [6]): 0.107 nM; Drug metabolism [18]: 1.22 mL/min/g; solubility kinetic (physchem [19]): > 1000 µg/mL; Ratio IC50 (Homo sapiens [7]): 10 to 1000; half-life [20]: 13.2 min; Ratio IC50 (Homo sapiens [8]): 10 to 1000; Papp (in vitro): < 0.8 ×10⁻⁶ cm/s
1580 | 6310 |  | Soluble | 631 | 2.1 | 100 | Cc1ccnn1-c1cccc([C@H](CC(=O)[O-])C[N+]2(C)CC[C@@H](CCc3ccc4c(n3)NCCC4)C2)c1 (mixture of isomers) | 
 |  |  |  |  |  |  | CC(C)(C)c1cc(Br)cc([C@H](CC(=O)O)NC(=O)CNC(=O)c2cc(O)cc(NC3=NCC(O)CN3)c2)c1 (stereo partly specified) | IC50 [21]: 0.2 nM
 |  |  |  |  |  |  | Cc1cc(C)n(-c2cccc([C@H](CC(=O)O)CN3CC[C@@H](CCc4ccc5c(n4)NCCC5)C3)c2)n1.Cl [GSK-3008348] | Stability [12]: < 0.86 mL/min/g; CL free [22]: 150 mL/min/kg; pKi [23]: 8.7; Vd [24]: 2.1 L/kg; Drug metabolism [18]: 9.45 mL/min/g; clearance [25]: 56 mL/min/kg
 |  |  | Soluble |  | 2.3 |  | O=C(O)C[C@H](CN1CC[C@@H](CCc2ccc3c(n2)NCCC3)C1)c1cccc(N2CCOCC2)c1 | 
